The target in the assay is Glycogen synthase kinase-3 beta (Homo sapiens, UniProt P49841). As to the kind of experiment: GSK3beta kinase inhibitor potency, dose response, biochemical, luminescence, cell-free homogeneous, retest (AID 434954).
Chain of Glycogen synthase kinase-3 beta (P49841 whole entry): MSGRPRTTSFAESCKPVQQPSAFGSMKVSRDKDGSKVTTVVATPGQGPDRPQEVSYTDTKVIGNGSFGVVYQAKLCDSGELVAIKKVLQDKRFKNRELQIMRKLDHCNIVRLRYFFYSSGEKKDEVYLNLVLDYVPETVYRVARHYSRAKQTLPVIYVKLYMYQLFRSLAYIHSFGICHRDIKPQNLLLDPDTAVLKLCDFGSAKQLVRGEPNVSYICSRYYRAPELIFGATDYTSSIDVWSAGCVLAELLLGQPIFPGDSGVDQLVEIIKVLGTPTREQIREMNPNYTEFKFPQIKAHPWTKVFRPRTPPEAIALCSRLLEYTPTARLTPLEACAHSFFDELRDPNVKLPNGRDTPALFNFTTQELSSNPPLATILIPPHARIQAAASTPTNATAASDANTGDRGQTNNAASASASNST
With `O=C(NCCCN1CCCCC1)c1ccc2c(c1)NC(=O)C(N1CCCCC1)S2` (centres undefined) [3-oxo-2-piperidin-1-yl-N-(3-piperidin-1-ylpropyl)-4H-1,4-benzothiazine-6-carboxamide], the 50% effective concentration (EC50) – broadly, the concentration at which the effect is half-maximal – is > 300 µM. The result for `COCCNc1nc(N)c([N+](=O)[O-])c(NC2CCCCC2)n1` reads 5.35 µM; that for `O=C(Nc1ccc(O)c2c(=O)cc(-c3ccccc3Cl)oc12)c1cccs1` [SMR000465219], 16.7 µM; that for `COc1ccc(N2C(=O)C3CCCN3C2c2ccccc2F)cc1` (centres undefined) [MLS000117169], > 300 µM. In the case of `CC(C)CC(CO)N1CCN(C(=O)c2ccc(Cl)c(Cl)c2)CCC1=O` (centres undefined) [1-(3,4-dichlorobenzoyl)-4-(1-hydroxy-4-methylpentan-2-yl)-1,4-diazepan-5-one] it was > 300 µM; in that of `O=C(NCC(c1cccs1)N1CCOCC1)c1ccccc1NS(=O)(=O)c1ccc(Cl)cc1` (centres undefined) [SMR000242318], > 300 µM; in that of `CC(CC(=O)Nc1ccc2c(c1)OCO2)=NNC(=O)c1ccc(N)cc1` [MLS001042207], > 300 µM. Take `CC1CCc2c(sc(Nc3nc4c(F)cccc4s3)c2C(N)=O)C1` (centres undefined) [2-[(4-fluoranyl-1,3-benzothiazol-2-yl)amino]-6-methyl-4,5,6,7-tetrahydro-1-benzothiophene-3-carboxamide]: the EC50 is > 300 µM. The compound `Nc1nc(NCCOCCO)nc(NCC2CCCO2)c1[N+](=O)[O-]` (centres undefined) yielded an EC50 of 16.7 µM. In the case of `O=C(Nc1nccs1)C1CCCN1S(=O)(=O)c1cccc2cccnc12` (centres undefined) [SMR000096012] it was 30.2 µM; in that of `C=C1C(c2ccc(OC)cc2)=[N+](O)C(C)=C(C)N1[O-]`, > 300 µM.

On to `O=C(CSc1n[nH]c(=O)[nH]c1=O)c1ccc(Cl)cc1Cl` [6-[2-(2,4-dichlorophenyl)-2-oxoethyl]sulfanyl-2H-1,2,4-triazine-3,5-dione], for which the EC50 is > 300 µM. `Nc1nonc1-n1nnc(C(=O)NN=Cc2ccccc2F)c1CN1CCOCC1` [1-(4-azanyl-1,2,5-oxadiazol-3-yl)-N-[(2-fluorophenyl)methylideneamino]-5-(morpholin-4-ylmethyl)-1,2,3-triazole-4-carboxamide] displayed an EC50 of 92.1 µM. As to `Cc1nn(CC(=O)NCCCN2CCCCC2)c(=O)c2cc(-c3ccccc3)nn12` [SMR000631197], the EC50 is > 300 µM. In the case of `N#Cc1c(O)nc(SCC(=O)c2cccs2)nc1-c1cccs1` [6-oxo-2-{[2-oxo-2-(2-thienyl)ethyl]sulfanyl}-4-(2-thienyl)-1,6-dihydro-5-pyrimidinecarbonitrile] it was > 300 µM; in that of `CCOC(=O)C1=C(C)NC(=O)C1=CNc1ccccc1` [SMR000168580], 51.5 µM.

As to `CC1CCCCN1c1nnc(N)s1` (centres undefined) [5-(2-methyl-1-piperidinyl)-1,3,4-thiadiazol-2-amine], the EC50 was > 300 µM.

On to `CCN(CC)CCN1C(=O)C(=O)C(C(=O)c2ccc(S(=O)(=O)N3CCOCC3)cc2)C1c1ccccc1` (centres undefined) [(4E)-1-[2-(diethylamino)ethyl]-4-[hydroxy-[4-(4-morpholinylsulfonyl)phenyl]methylidene]-5-phenylpyrrolidine-2,3-dione], for which the concentration for a half-maximal effect (EC50) is > 300 µM. `CN(C)Cc1c(C(=O)NN=CCCc2ccccc2)nnn1-c1nonc1N` returned a concentration giving a half-maximal response (EC50) of 21.8 µM. Take `CC(C)Nc1nc(-c2ccncc2)nc(-c2ccccc2)c1C#N` [SMR000549424]: the EC50 was > 300 µM. In the case of `O=C(COc1ccccc1[N+](=O)[O-])NN=Cc1ccccn1` [(2-Nitro-phenoxy)-acetic acid [1-pyridin-2-yl-meth-(E)-ylidene]-hydrazide] it was > 300 µM. In the case of `COC(=O)c1sccc1NC(=O)c1ccc(Br)s1` [3-[(5-bromothiophene-2-carbonyl)amino]thiophene-2-carboxylic acid methyl ester] it was > 300 µM.

As to `O=C(O)c1ccccc1Nc1ccccc1C(=O)O` [2-[(2-carboxyphenyl)amino]benzoic acid], the EC50 was > 300 µM. The result for `Nc1c(C(=O)c2ccccc2)sc(Nc2ccccc2)c1S(=O)(=O)c1ccccc1` [SMR000115215] reads > 300 µM.

The values are drawn from BindingDB's records for doi:10.7270/Q2TX3CTT (Broad Institute, 2010).
